In BigSolDB 2.1:

N[C@H](Cc1c[nH]c2ccccc12)C(=O)O
solubility (mole fraction)
Settings | 283.15 K | 288.15 K | 293.15 K | 298.15 K | 303.15 K | 308.15 K | 313.15 K | 318.15 K | 323.15 K | 328.15 K
in DMSO | – | – | 0.00359 | 0.00381 | 0.00464 | 0.00551 | 0.00596 | 0.00705 | 0.00778 | 0.00911
in acetonitrile | 5.75e-05 | 6.84e-05 | 8.14e-05 | 0.000107 | 0.000128 | 0.00015 | 0.000206 | 0.000241 | 0.000307 | 0.000372
in ethyl acetate | 0.000238 | 0.000302 | 0.000376 | 0.000476 | 0.000541 | 0.000699 | 0.000837 | 0.00115 | 0.00141 | 0.0018
in ethylene glycol | 0.00148 | 0.00167 | 0.00246 | 0.00318 | 0.00437 | 0.00547 | 0.00804 | 0.00999 | 0.0125 | 0.0161
in n-butanol | 1.97e-05 | 2.21e-05 | 2.99e-05 | 3.52e-05 | 4.81e-05 | 5.68e-05 | 7.9e-05 | 9.26e-05 | 0.00012 | 0.000137
in n-octanol | 1.36e-05 | 1.53e-05 | 1.88e-05 | 2.49e-05 | 2.8e-05 | 3.61e-05 | 4.02e-05 | 4.83e-05 | 5.87e-05 | 6.53e-05
in n-propanol | 4.51e-05 | 6.23e-05 | 7.27e-05 | 8.69e-05 | 0.000111 | 0.000127 | 0.000157 | 0.000177 | 0.000219 | 0.000244
